Measured values reported in patent publication US8975410B2, “Crystal forms of 5-[3-(2,5-dichloro-4, 6-dimethyl-1-oxy-pyridine-3-yl)[1,2,4] oxadiazol-5-yl]-3-nitrobenzene-1,2-diol” (BIAL—Portela & CA., S.A., priority 2008, dated 2015).

What was measured:
[1] = about 5% to about 95% relative humidity at 25° C. over a period of 3 months
[2] = interconversion experiments of the polymorphs; settings: for stability class of the polymorph: conclusion from interconversion experiments
[3] = drying under vacuum at ambient temperature or at 60° C.

SMILES	stability class of the polymorph [2]	polymorphic conversion in interconversion experiments [2]	polymorph produced on drying [3]	other results
Cc1c(Cl)c(C)[n+]([O-])c(Cl)c1-c1noc(-c2cc(O)c(O)c([N+](=O)[O-])c2)n1 [polymorph A, 5-[3-(2,5-dichloro-4,6-dimethyl-1-oxy-pyridin-3-yl)-[1,2,4]oxadiazol-5-yl]-3-nitrobenzene-1,2-diol]	thermodynamically stable polymorph	–	–	hygroscopicity [1]: non-hygroscopic
Cc1c(Cl)c(C)[n+]([O-])c(Cl)c1-c1noc(-c2cc(O)c(O)c([N+](=O)[O-])c2)n1 [polymorph B, 5-[3-(2,5-dichloro-4,6-dimethyl-1-oxy-pyridin-3-yl)-[1,2,4]oxadiazol-5-yl]-3-nitrobenzene-1,2-diol]	kinetically stable polymorphs	–	–	polymorphic conversion when slurried in water ([2]; slurried in water containing crystal seeds of modification A over prolonged periods of time): converts into polymorph A
Cc1c(Cl)c(C)[n+]([O-])c(Cl)c1-c1noc(-c2cc(O)c(O)c([N+](=O)[O-])c2)n1 [polymorph D, 5-[3-(2,5-dichloro-4,6-dimethyl-1-oxy-pyridin-3-yl)-[1,2,4]oxadiazol-5-yl]-3-nitrobenzene-1,2-diol]	–	convert into polymorph A or B	–	–
Cc1c(Cl)c(C)[n+]([O-])c(Cl)c1-c1noc(-c2cc(O)c(O)c([N+](=O)[O-])c2)n1 [polymorph F, 5-[3-(2,5-dichloro-4,6-dimethyl-1-oxy-pyridin-3-yl)-[1,2,4]oxadiazol-5-yl]-3-nitrobenzene-1,2-diol]	–	convert into polymorph A or B	–	–
Cc1c(Cl)c(C)[n+]([O-])c(Cl)c1-c1noc(-c2cc(O)c(O)c([N+](=O)[O-])c2)n1 [polymorph C, 5-[3-(2,5-dichloro-4,6-dimethyl-1-oxy-pyridin-3-yl)-[1,2,4]oxadiazol-5-yl]-3-nitrobenzene-1,2-diol]	–	convert into polymorph A or B	produced polymorph B	–
Cc1c(Cl)c(C)[n+]([O-])c(Cl)c1-c1noc(-c2cc(O)c(O)c([N+](=O)[O-])c2)n1 [polymorph E, 5-[3-(2,5-dichloro-4,6-dimethyl-1-oxy-pyridin-3-yl)-[1,2,4]oxadiazol-5-yl]-3-nitrobenzene-1,2-diol]	–	convert into polymorph A or B	produced polymorph A	–
